# Assay results reported in US8013187B2, “2-cyclopenten-1-one oxime derivatives inhibiting production of TNF-α” (Amorepacific Corporation, priority 2004, dated 2011).
# Key:
# [1] = system: production of TNF-α in rat PBMCs; assay: Inhibition of TNF-α production in rat PBMCs (LPS/IFN-γ stimulated, ELISA); format: cell-based; details: PBMC; rat PBMCs, LPS + IFN-γ, 18 hours
# Procedure: (§1) Compounds of this invention were evaluated for their ability to inhibit the production of TNF-α in stimulated immune cells. […] Compounds of the present invention were evaluated for their therapeutic activity in animal models for inflammatory or immunological disorders. Also compounds of this invention were assayed for their ability to inhibit PDE4 isozymes.
# Inhibition of TNF-α Production in Rat PBMCs: Compounds of the present invention were evaluated for their ability to inhibit the production of TNF-α in rat peripheral blood mononuclear cells (PBMCs) as described in the literature. [Exp. Geront. vol 37, 235-247 (2002)] In brief, 6 ml rat blood drawn from the abdominal vein as treated with ACD (acid/citrate/dextrose) was carefully added in a tube containing 6 ml Ficoll 1077, and the tube was centrifuged for 30 min at 1500 rpm (415 G) at room temperature. The cell fraction (middle fraction) was suspended in a 50 ml tube containing phosphate buffered saline (PBS). The tube was centrifuged for 5 min at 2000 rpm (737 G). The resulting pellet was suspended in 6 ml PBS and 6 ml Ficoll 1077, and centrifuged for 30 min at 1500 rpm (415 G) at room temperature to remove remaining plasma. The cell fraction was suspended in PBS and centrifuged for 5 min at 2000 rpm. Such a washing was repeated twice. Then the collected cells were suspended in 10 ml RPMI-1640 containing 10% FBS and further diluted to contain 4×10^6 cells per ml. The cell suspension was dispensed into a 96-well plate at 100 μl per well, which was pre-supplemented with 1 μl of either DMSO (placebo) or a DMSO stock solution containing a designated concentration of a compound of this invention. The plate was cultured for an hour at 37° C. under 5% CO2 and 95% O2. To each well, was added 100 μl RPMI-1640 containing 0.1 μg/ml LPS, 5 U/ml IFN-γ, and 10% FBS. Then the plate was subjected to a culture for 18 hours at 37° C. under 5% CO2 and 95% O2. An aliquot of the supernatant from each well was subjected to an ELISA assay to determine the TNF-α level in the well.
# [2] = system: production of TNF-α in mice stimulated with LPS; assay: In vivo inhibition of TNF-α production in mice stimulated with LPS; details: Mus musculus, 2 h, LPS i.p., plasma at hour 2, read-out: % Inhibition of in vivo TNF-α production @ dose; for inhibition in vivo at 3 mg/kg: 3 mg/kg oral gavage
# Procedure: [J. Pharmacol. Exp. Therapeut. vol 279, 1453-1461 (1996)] In brief, either a compound of the instant invention with vehicle or vehicle only (5% Tween 80) was administered by oral gavage (10 ml/kg body weight) at hour 0 to mice (Balb/C or ICR, 25˜30 g) fasted overnight. The mice were subjected to a peritoneal injection with […] LPS per mouse at hour 0.5, and blood was drawn from the abdominal vein at hour 2 following euthanasia with CO2. Then plasma separated from the drawn blood by centrifugation was subjected to an ELISA assay to measure the level of TNF-α.
# [3] = target: T1, PDE4A (Homo sapiens, UniProt P27815); assay: Inhibition of PDE4 isozymes ([3H]cAMP SPA): PDE4A; format: biochemical; details: @ 0.5 μg/ml, pH 7.4 Tris buffer
# T1 construct: purchased Fab Gennix International Inc. (Frisco, Tex./USA)
# Procedure: (§2) Inhibition of PDE4 Isozymes: Compounds of the instant invention were evaluated for their ability to inhibit isozymes of phosphodiesterase 4 (PDE4) obtained from Fab Gennix International Inc. (Frisco, Tex./USA) according to a literature method. […] In brief, a compound at a designated dose was assayed for their ability to inhibit the hydrolysis of cAMP by a PDE4 isozyme in pH 7.4 Tris buffer. The resulting level of cAMP was determined by the scintillation proximity assay (SPA) using a SPA kit from Amersham Biosciences according to the supplier's instruction manual (TRKQ7090 Phosphodiesterase [^3H]cAMP SPA enzyme assay).
# [4] = target: T2, PDE4D (Homo sapiens, UniProt Q08499); assay: Inhibition of PDE4 isozymes ([3H]cAMP SPA): PDE4D; format: biochemical; details: @ 0.1 μg/ml, pH 7.4 Tris buffer
# T2 construct: purchased Fab Gennix International Inc. (Frisco, Tex./USA)
# Procedure: as §2
# [5] = system: production of TNF-α in human PBMCs; assay: Inhibition of TNF-α production in human PBMCs (ELISA); format: cell-based; details: PBMC
# Procedure: as §1
# Inhibition of TNF-α Production in Human PBMCs: Compounds of the present invention were evaluated for their ability to inhibit the production of TNF-α in human PBMCs as described in the literature. [J. Med. Chem. vol 39, 3238-3240 (1996)] Blood was freshly drawn from healthy human subjects as treated with ACD to isolate human PBMCs according to the procedure employed for rat PBMCs. The employed assay method for the ELISA against human TNF-α was essentially identical to that for the rat TNF-α ELISA assay.
# [6] = system: cAMP degradation in U937 cells; assay: In vitro inhibition of cAMP degradation in U937 cells (forskolin, cAMP EIA); format: cell-based; details: Homo sapiens, U-937, 10 μM forskolin
# Procedure: In vitro Inhibition of cAMP Degradation in U937 Cells: Compounds of this invention were evaluated for their ability to inhibit in cells the hydrolysis of cAMP induced by forskolin, an adenylate cyclase stimulator. In brief, 3×10^5 U937 cells per well on a 96-well plate were incubated for 10 min at 37° C. in 200 μl RPMI-1640 containing 10% FBS, which was followed by treatment of either DMSO or a DMSO stock solution of a compound of the present invention at a designated dose. Then the cells were stimulated with 10 μM forskolin for 10 min at 37° C. The plate was centrifuged for 5 min at 1500 rpm. 120 μl of the supernatant was carefully removed from each well and 200 μl of lysis agent 1B was added to the well. Then the cell lysate was assayed to determine the level of cAMP by enzyme immunoassay (EIA) using a cAMP EIA kit from Amersham Pharmacia Biotech (Kit #RPN225). IC50's were determined for compounds of this invention from dose response curves for cAMP levels.
# [7] = system: colitis induced by dextran sulfate sodium (DSS) in Balb/c mice; assay: DSS-induced colitis in mice; format: in vivo; details: 50 mg/kg BID oral, day 11, p>0.05
# Procedure: Therapeutic Effect in DSS-induced Colitis: Compounds of the present invention were evaluated for their ability to treat colitis induced by dextran sulfate sodium (DSS) in mice according to the literature. […] In brief, female Balb/c mice weighing 16-20 g were randomized into groups (5˜6 per group) and were allowed from day 1 free access to water containing 5% DSS. A compound of this invention or sulfasalazine in 5% Tween 80 at 10 ml/kg was orally administered twice a day. Clinical activity score of each animal was measured on a daily basis by evaluating the stool consistency, body weight and rectal bleeding.
# T2 sequence (Q08499 whole entry): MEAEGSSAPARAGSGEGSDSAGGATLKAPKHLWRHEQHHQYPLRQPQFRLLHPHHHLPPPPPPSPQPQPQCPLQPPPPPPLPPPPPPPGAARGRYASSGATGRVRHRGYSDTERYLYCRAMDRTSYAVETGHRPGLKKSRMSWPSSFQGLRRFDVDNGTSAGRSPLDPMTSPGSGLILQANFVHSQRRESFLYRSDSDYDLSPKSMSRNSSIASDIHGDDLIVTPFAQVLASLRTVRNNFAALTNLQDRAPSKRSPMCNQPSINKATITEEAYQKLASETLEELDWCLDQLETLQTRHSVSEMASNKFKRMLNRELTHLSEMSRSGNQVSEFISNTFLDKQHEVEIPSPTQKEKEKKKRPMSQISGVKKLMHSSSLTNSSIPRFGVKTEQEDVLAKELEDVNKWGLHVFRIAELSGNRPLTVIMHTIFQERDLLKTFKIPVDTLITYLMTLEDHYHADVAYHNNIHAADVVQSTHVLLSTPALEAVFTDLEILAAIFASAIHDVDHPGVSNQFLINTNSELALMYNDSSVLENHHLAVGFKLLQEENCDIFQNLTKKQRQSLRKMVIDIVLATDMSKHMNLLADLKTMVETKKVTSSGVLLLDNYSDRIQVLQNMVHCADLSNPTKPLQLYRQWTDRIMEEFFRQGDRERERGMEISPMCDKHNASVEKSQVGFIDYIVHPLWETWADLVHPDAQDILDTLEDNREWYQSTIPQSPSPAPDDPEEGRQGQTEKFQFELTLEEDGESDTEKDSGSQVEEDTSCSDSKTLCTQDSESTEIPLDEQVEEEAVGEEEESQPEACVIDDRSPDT
# T1 sequence (P27815 whole entry): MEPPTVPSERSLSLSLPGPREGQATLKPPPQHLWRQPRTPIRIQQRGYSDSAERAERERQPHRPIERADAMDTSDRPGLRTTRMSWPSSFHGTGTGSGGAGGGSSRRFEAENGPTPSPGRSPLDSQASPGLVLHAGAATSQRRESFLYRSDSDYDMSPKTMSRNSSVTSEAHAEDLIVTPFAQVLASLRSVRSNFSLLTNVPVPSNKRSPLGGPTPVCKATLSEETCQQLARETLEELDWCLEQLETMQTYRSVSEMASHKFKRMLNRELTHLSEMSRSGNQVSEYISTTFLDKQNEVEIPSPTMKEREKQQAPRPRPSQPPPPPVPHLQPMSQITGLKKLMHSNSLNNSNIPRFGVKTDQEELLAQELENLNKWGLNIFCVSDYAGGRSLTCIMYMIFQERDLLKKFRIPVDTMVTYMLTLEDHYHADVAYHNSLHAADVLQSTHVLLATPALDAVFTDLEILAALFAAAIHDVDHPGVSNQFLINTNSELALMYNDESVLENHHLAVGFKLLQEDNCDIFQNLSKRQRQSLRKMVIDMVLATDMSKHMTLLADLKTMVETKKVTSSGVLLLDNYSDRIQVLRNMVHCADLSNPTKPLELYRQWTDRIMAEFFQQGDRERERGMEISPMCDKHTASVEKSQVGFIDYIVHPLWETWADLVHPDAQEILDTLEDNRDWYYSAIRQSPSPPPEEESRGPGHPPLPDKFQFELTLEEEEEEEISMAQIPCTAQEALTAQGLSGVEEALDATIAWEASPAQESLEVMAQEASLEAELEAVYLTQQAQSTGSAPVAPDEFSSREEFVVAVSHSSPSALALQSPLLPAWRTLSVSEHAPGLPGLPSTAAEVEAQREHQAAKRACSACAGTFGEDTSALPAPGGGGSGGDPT
SMILES,inhibition at 0.5 µg/mL [3],inhibition at 0.1 µg/mL [4],melting point,IC50 [6],IC50 [1],inhibition in vivo at 3 mg/kg [2],IC50 [5],inhibition in vivo at 0.3 mg/kg ([2]; 0.3 mg/kg oral gavage),inhibition in vivo at 1 mg/kg ([2]; 1 mg/kg oral gavage),inhibition in vivo at 0.2 mg/kg ([2]; 0.2 mg/kg oral gavage),improvement in the clinical score activity from the control group [7]
"ON=C1CCC(C2CCCC2)=C1c1ccc(F)cc1 [Example 1, 3-cyclopentyl-2-(4-fluorophenyl)-2-cyclopenten-1-one oxime]",72%,79%,204 to 205 °C,,0.12 µg/mL,72%,,,,,
"ON=C1CCC(C2CCCC2)=C1c1ccc(F)c(Cl)c1 [Example 3, 2-(3-chloro-4-fluorophenyl)-3-cyclopentyl-2-cyclopenten-1-one oxime]",89%,78%,143 to 144 °C,,0.053 µg/mL,,,,,,
"ON=C1CCC(C2CCCC2)=C1c1ccc2c(c1)OCO2 [Example 10, 3-cyclopentyl-2-(3,4-methylenedioxyphenyl)-2-cyclopenten-1-one oxime]",33%,38%,186 to 188 °C,,0.097 µg/mL,,,,,,
"ON=C1CCC(C2CCCCC2)=C1c1ccc(F)c(Cl)c1 [Example 28, 2-(3-chloro-4-fluorophenyl)-3-cyclohexyl-2-cyclopenten-1-one oxime]",58%,87%,158 to 160 °C,,0.13 µg/mL,88%,,,,,
"CCCC1=C(c2ccc(F)c(F)c2)C(=NO)CC1 [Example 79, 2-(3,4-difluorophenyl)-3-propyl-2-cyclopenten-1-one oxime]",0%,23%,136 to 137 °C,,0.18 µg/mL,85%,,,,,
O=C(O)c1cc(/N=N/c2ccc(S(=O)(=O)Nc3ccccn3)cc2)ccc1O [sulfasalazine],,,,,,,,,,,19%

# Second part, led by results:
inhibition at 0.5 µg/mL [3],inhibition at 0.1 µg/mL [4],melting point,IC50 [6],SMILES,IC50 [1],inhibition in vivo at 3 mg/kg [2],IC50 [5],inhibition in vivo at 0.3 mg/kg ([2]; 0.3 mg/kg oral gavage),inhibition in vivo at 1 mg/kg ([2]; 1 mg/kg oral gavage),inhibition in vivo at 0.2 mg/kg ([2]; 0.2 mg/kg oral gavage),improvement in the clinical score activity from the control group [7]
,,173 to 174 °C,0.1 µg/mL,"ON=C1CCC(C2CCCC2)=C1c1ccc(F)c(F)c1 [Example 2, 3-cyclopentyl-2-(3,4-difluorophenyl)-2-cyclopenten-1-one oxime]",0.035 µg/mL,,0.072 µg/mL,78%,,,
,,116 to 120 °C,0.87 µg/mL,"CCCCC1=C(c2ccc3c(c2)OCO3)C(=NO)CC1 [Example 45, 3-butyl-2-(3,4-methylenedioxyphenyl)-2-cyclopenten-1-one oxime]",0.69 µg/mL,,0.8 µg/mL,,42%,,
,,,0.27 µg/mL,"COc1ccc(C2CNC(=O)C2)cc1OC1CCCC1 (centres unmarked) [Rolipram, rolipram, reference compound]",0.05 to 0.1 µg/mL,,0.01 to 0.1 µg/mL,,,~50%,
